Data reported in publication PMC12106615, “Population pharmacokinetics of colistin sulfate in critically ill patients based on NONMEM” (Scientific Reports, 2025).
Counter-ions that a name gives are not always drawn. Bridge positions count the residues as written; N and C are the ends. Square brackets hold non-standard residues; d marks the D form. Peptide text beside a SMILES is read from it. * marks the point of attachment. X1 = CC[C@H](C)CCCCC(=O)*; Dab = NCC[C@H](N)C(=O)O

Experiments:
[1] = Nephrotoxicity / acute kidney injury by RIFLE criteria; format: in vivo, human; details: 178 critically ill patients, empirical intravenous colistin sulfate; RIFLE criteria without urinary output criterion
From the text: (§1) The retrospective study subjects were patients admitted to Beijing Electric Power Hospital, Beijing, China, between May 2022 and May 2024. The study design conformed to the principles of the Declaration of Helsinki, and the study was approved by the Ethics Research Committee of Beijing Electric Power Hospital (approval no: n090327). Written informed consent was obtained from all patients or their legal representatives. In clinical practice, adult patients who had received intravenous colistin sulfate (Specification: 0.5 MU; Asia Pioneer Pharmaceutical Co., Ltd., Shanghai, China) with at least one measurement of colistin sulfate concentration were eligible for inclusion. The inclusion criteria were as follows: (1) age ≥ 18 years, (2) patients who had received colistin sulfate treatment, and (3) patients with at least one measurement of colistin sulfate concentration. The exclusion criteria were as follows: (1) patients who died within 24 h after receiving colistin sulfate treatment, (2) patients who received nebulized colistin sulfate and intrathecal colistin sulfate, and (3) patients who also received continuous renal replacement therapy during colistin sulfate treatment. […] The RIFLE criteria (risk, injury, failure, loss, and end-stage kidney disease), estimated with exclusion of the urinary output criterion, were used for detection and stratification of acute kidney injury.

[2] = Population pharmacokinetic (PPK) model of colistin sulfate, NONMEM, two-compartment with first-order elimination; format: in vivo, human
Experimental: PPK analyses were performed using NONMEM version 7.5 (Icon Development Solutions, Ellicott City, MD, USA) and Pirana version 3.0. Ggplot2 version 3.5.1 package in R software (version 4.1.3, R-project.org) and Xpose version 4.3.2 packages were used to generate line plots and diagnostic plots, respectively.
One- and two-compartment structural models with first-order elimination characteristics of colistin sulfate were constructed using NONMEM software. Between-subject variability (BSV) was assessed using an exponential function. Within-subject variability (WSV) was assessed by additive, proportional, or combined (additive plus proportional) models, while model with the smallest variability represented the best ones. The base model was chosen according to diagnostic plots and goodness-of-fit criteria, including improvement of the OFV and precision and plausibility of parameter estimation. The factors influencing fixed effects were screened based on our previous study. Covariates were included in the base models in a stepwise manner, and testing was performed by using the following statistical criteria: ΔOFV > 3.84, P < 0.05. The covariate was considered to have a significant influence at ΔOFV > 3.84 and retained in the model or eliminated otherwise. All covariates with significant influence on models were then incorporated into the base models to construct full regression models. The full regression models were then subjected to reverse elimination. The included covariates were tested using stricter statistical criteria (ΔOFV > 6.63, P < 0.01), and covariates showing a small influence on the models were eliminated, thereby yielding the final model.
Goodness-of-fit plots, nonparametric bootstrap, and pc-VPC were used to evaluate the final model and parameter estimates. A nonparametric bootstrap procedure was utilized to assess the performance and stability of the final model. Random sampling and individual replacement were used to generate 1000 replicate datasets. The median and 95% CI values of the final model parameters obtained using bootstrap validation were then compared, and the predictive performance of the model was validated. The dataset was simulated 1000 times using the $SIMULATION block in NONMEM. The 90% CI values for the 5 th, 50 th, and 95 th percentiles of the simulated concentrations were calculated. The time curves were then plotted after the last dose and compared with the observed concentrations for prediction and variability correction using pc-VPC.

[3] = 14 patients with successful treatment; ref Yu et al.[14]; cited from earlier work
Experimental: The steady-state plasma concentration (Css.avg) of these 129 patients was 0.93 ± 0.35 mg/L, which was inconsistent with the value (2.0–2.4 mg/L) jointly recommended by the multidisciplinary expert consensus[17] on the rational clinical use of colistin in China. This consensus considered that the in vitro antimicrobial activit ...

[4] = previous studies; ref [14],[25]–[29]; cited from earlier work
From the text: Advanced age, the presence of multiple coexisting diseases, severe infections, low fluid replacement volume, and exposure to combination therapy with multiple drugs are recognized as risk factors for the development of acute kidney injury associated with colistin sulfate treatment. If colistin sulfate is the only factor considered, a Css level of ...

[5] = Clinical outcome (14-day mortality) of patients receiving intravenous colistin sulfate; format: in vivo, human; details: 178 critically ill patients, mostly combination therapy
From the text: as §1

[6] = 178 critically ill patients, 364 concentrations, intravenous
[7] = nonparametric bootstrap, 1000 replicate datasets

With CC[C@H](C)CCCCC(=O)N[C@@H](CCN)C(=O)N[C@H](C(=O)N[C@@H](CCN)C(=O)N[C@H]1CCNC(=O)[C@H]([C@@H](C)O)NC(=O)[C@H](CCN)NC(=O)[C@H](CCN)NC(=O)[C@H](CC(C)C)NC(=O)[C@@H](CC(C)C)NC(=O)[C@H](CCN)NC1=O)[C@@H](C)O [colistin sulfate] (X1-[Dab]T[Dab][Dab][Dab][dL]L[Dab][Dab]T; lactam 4-C) as the compound, how does the “Acute kidney injury (nephrotoxicity) incidence” value [1] read?
Its value is 11.8%.

And the “tvQ, typical value of inter-compartmental clearance, final model estimate” value [2, 6]?
Its value is 1.63 L/h.

And the “tvV2, typical value of volume of peripheral compartment distribution, final model estimate” value [2, 6]?
The value was 109 L.

What about the “tvV1, typical value of volume of central compartment distribution, final model estimate” value ([2]; 178 critically ill patients, 364 concentrations, intravenous, weight as covariate) of the same compound?
Its value is 49.7 L.

And the “dVdWT, exponential parameter coefficient of WT to V1, final model estimate” value ([2]; final PPK model)?
The value was 1.2.

What about the clearance ([2]; human, plasma, 178 critically ill patients, 364 concentrations, intravenous, CrCL as covariate, read-out: tvCL, typical value of central compartment clearance, final model estimate (converted)) of the same compound?
Its clearance is 44.3 mL/min.

And the “dCLdCrCL, bootstrap median” value [2, 7]?
Its value is 0.466.

What about the “dVdWT, bootstrap median” value [2, 7] of the same compound?
Its value is 1.28.

And the “tvCL, bootstrap median” value [2, 7]?
Its value is 2.67 L/h.

What about the “tvQ, bootstrap median” value [2, 7] of the same compound?
Its value is 1.67 L/h.

And the “tvV1, bootstrap median” value [2, 7]?
Its value is 50.04 L.

What about the “tvV2, bootstrap median” value [2, 7] of the same compound?
Its value is 103.65 L.

And the “Css.avg of colistin sulfate” value [3]?
Its value is 1730 ± 980 ng/mL.

And the “Incidence rate of nephrotoxicity induced by colistin sulfate” value [4]?
Its value is “less than 21.25%”.

What about the 14-day mortality rate [5] of the same compound?
The 14-day mortality rate was 27.53%.
